Values of other authors, collected in patent publication US7388019B2, “3-amino-4-phenylbutanoic acid derivatives as dipeptidyl peptidase inhibitors for the treatment or prevention of diabetes” (Merck & Co., Inc., priority 2003, dated 2008).

Assays:
DP-IV = target: T1, DP-IV (Homo sapiens, UniProt P27487); conditions: plasma
T1 construct: GRF is rapidly degraded in plasma to GRF[3-44]; from tissue

[1] = mouse, cyclophosphamide-induced neutropenia
[2] = rats

T1 sequence (P27487 39-766 limits assumed): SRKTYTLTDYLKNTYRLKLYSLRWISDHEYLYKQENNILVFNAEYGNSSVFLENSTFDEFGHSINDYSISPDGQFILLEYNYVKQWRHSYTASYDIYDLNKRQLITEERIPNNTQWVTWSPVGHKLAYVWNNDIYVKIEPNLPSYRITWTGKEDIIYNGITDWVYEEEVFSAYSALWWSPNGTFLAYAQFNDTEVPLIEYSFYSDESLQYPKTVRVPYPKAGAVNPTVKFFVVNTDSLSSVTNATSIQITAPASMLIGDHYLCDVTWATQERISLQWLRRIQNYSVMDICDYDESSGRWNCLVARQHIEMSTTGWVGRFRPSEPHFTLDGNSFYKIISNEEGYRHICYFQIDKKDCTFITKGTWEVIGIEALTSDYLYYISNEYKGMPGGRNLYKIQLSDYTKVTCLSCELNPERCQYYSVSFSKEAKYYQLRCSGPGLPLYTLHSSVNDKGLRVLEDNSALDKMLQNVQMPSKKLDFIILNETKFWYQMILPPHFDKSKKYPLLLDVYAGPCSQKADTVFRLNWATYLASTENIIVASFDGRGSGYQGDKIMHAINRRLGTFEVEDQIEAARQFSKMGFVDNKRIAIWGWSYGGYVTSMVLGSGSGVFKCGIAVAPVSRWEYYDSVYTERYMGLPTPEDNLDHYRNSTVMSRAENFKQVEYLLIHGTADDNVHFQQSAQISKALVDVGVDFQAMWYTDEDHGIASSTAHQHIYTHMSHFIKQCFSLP

diprotin A
degradation of GRF to GRF[3-44] (DP-IV): prevented

CC(C)[C@H](N)C(=O)N1CCC[C@H]1B(O)O [Val-Boro-Pro]
hematopoiesis [1]: stimulated hematopoiesis

CC(C)N1CCC(c2ccccc2)(c2ccccc2)CC1 [Prodipine, Pro-Pro-diphenyl-phosphonate]
cardiac allograft survival [2]: double cardiac allograft survival in rats from day 7 to day 14
